Measured values taken from patent EP4678638A1, “NEW E3 UBIQUITIN LIGASE LIGAND, PROTEIN DEGRADATION AGENT AND USE THEREOF” (priority 2023, dated 2024).

Columns and labels:
SW620 = experiment: CCK-8 proliferation, SW620; assay type: cell-based; settings: Homo sapiens, SW-620; CCK-8; 96 hours; read-out: Inhibitory activity (IC50) on tumor cell proliferation, SW620
Procedure, shortened: (§1)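 CCK-8 viability readout; IC50 from growth-inhibition curve fitting. Cells plated, dosed 24h later with a 10-point series, top 10µM, 5-fold steps. Culture at 37°C, 5% CO2.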

MGC-803 = experiment: CCK-8 proliferation, MGC-803 (heads: MGC80-3, MGC803); assay type: cell-based, Human; settings: Homo sapiens, MGC-803; CCK-8; 72 hours; read-out: Inhibitory activity (IC50) on tumor cell proliferation, MGC80-3
Procedure, shortened: as §1

CCRF-CEM = experiment: CCK-8 proliferation, CCRF-CEM; assay type: cell-based, Human; settings: Homo sapiens, CCRF-CEM; CCK-8; 96 hours; read-out: Inhibitory activity (IC50) on tumor cell proliferation, CCRF-CEM
Procedure, shortened: as §1

Jurkat = experiment: CCK-8 proliferation, Jurkat; assay type: cell-based, Human; settings: Homo sapiens, Jurkat; CCK-8; 96 hours; read-out: Inhibitory activity (IC50) on tumor cell proliferation, Jurkat
Procedure, shortened: as §1

CAL-62 = experiment: CCK-8 proliferation, CAL-62; assay type: cell-based; settings: Homo sapiens, 72 hours, read-out: Inhibitory activity (IC50) on tumor cell proliferation, CAL-62
Description: (§2) The tumor cells used herein were cultured in a cell culture medium listed in table A1 at 37°C in an incubator with 5% CO2. Prior to experimentation, all cell lines used were correctly identified by STR profiling, and tested negative for mycoplasma contamination using a mycoplasma detection kit through routine screenings. Table A1. Tumor cells and cell culture medium used in the present disclosure
(§3) IC50 values of the compounds of the present disclosure (including the compounds in Table 1, and compounds of examples) were measured using the Meilun Cell Counting Kit-8 kit from Dalian Meilun Biotech Co., Ltd. Assay details are as follows: tumor cells were seeded in a 96-well plate at a density listed in Table A2. After 24h, 100 µL of the inoculated cells were treated with 0.5µL of the compounds of the present disclosure (including the compounds in Tables 1 and 2, and compounds of examples) at 10 different successively decreasing concentrations (starting at the highest concentration of 10µM; 5-fold serial dilutions). After the cells were treated with the compounds of the present disclosure for a period of time, the cell viability detection reagent was added to the culture medium for cell viability assessment according to the instructions provided with the CCK-8 kit. […] The growth inhibition of the compounds of the present disclosure on cells was plotted by Prism Graphpad software, and the IC50 values of the compounds of the present disclosure were calculated therefrom. […] Seeding protocol and treatment time for tumor cells

Vcap = experiment: CCK-8 proliferation, Vcap; assay type: cell-based; settings: Homo sapiens, 96 hours, read-out: Inhibitory activity (IC50) on tumor cell proliferation, Vcap
Description: as §2
IC50 values of the compounds of the present disclosure (including the compounds in Table 1, and compounds of examples) were measured using the Meilun Cell Counting Kit-8 kit from Dalian Meilun Biotech Co., Ltd. Assay details are as follows: tumor cells were seeded in a 96-well plate at a density listed in Table A2. After 24h, 100 µL of the inoculated cells were treated with 0.5µL of the compounds of the present disclosure (including the compounds in Tables 1 and 2, and compounds of examples) at 10 different successively decreasing concentrations (starting at the highest concentration of 10µM; 5-fold serial dilutions). […] The growth inhibition of the compounds of the present disclosure on cells was plotted by Prism Graphpad software, and the IC50 values of the compounds of the present disclosure were calculated therefrom. […]

BXPC-3 = experiment: CCK-8 proliferation, BXPC-3; assay type: cell-based; settings: Homo sapiens, 96 hours, read-out: Inhibitory activity (IC50) on tumor cell proliferation, BXPC-3
Procedure, shortened: as §1

THP-1 = experiment: CCK-8 proliferation, THP-1; assay type: cell-based; settings: Homo sapiens, 72 hours, read-out: Inhibitory activity (IC50) on tumor cell proliferation, THP-1
Procedure, shortened: as §1

H520 = experiment: CCK-8 proliferation, H520; assay type: cell-based; settings: Homo sapiens, NCI-H520, 96 hours, read-out: Inhibitory activity (IC50) on tumor cell proliferation, H520
Description: as §2, §3

[1] = target: T1, human Cereblon WT GST-tagged protein (Homo sapiens, UniProt Q96SW2); experiment: CRBN binding, HTRF (CEREBLON BINDING kit); settings: Table II-2, CRBN binding screening, HTRF
T1 construct: purchased CISBIO 64BDCRBNPEH
T1 sequence (Q96SW2 whole entry): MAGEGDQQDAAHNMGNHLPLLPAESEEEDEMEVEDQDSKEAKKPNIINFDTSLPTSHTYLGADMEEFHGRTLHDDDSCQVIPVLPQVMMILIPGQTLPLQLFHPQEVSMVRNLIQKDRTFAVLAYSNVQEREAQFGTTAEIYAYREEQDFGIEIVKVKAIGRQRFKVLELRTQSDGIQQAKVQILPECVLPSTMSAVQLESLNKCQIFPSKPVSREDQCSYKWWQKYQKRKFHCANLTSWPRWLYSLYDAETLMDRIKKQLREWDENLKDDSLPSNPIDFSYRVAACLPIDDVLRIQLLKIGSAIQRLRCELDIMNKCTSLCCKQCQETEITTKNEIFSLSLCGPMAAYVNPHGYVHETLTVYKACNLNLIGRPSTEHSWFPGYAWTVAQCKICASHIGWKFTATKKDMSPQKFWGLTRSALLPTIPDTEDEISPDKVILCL
Procedure, shortened: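 Competitive HTRF: GST-tagged human WT Cereblon mixed with compound, Thalidomide-Re tracer and GST Eu antibody, incubated 3 h at room temperature. Signals read at 620 and 665 nm.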

AR = target: T2, AR (Homo sapiens, UniProt P10275+Q96SW2, T878A); experiment: Western blot degradation of AR (LnCap Cell); assay type: cell-based; settings: Table D11
T2 construct: evaluate the effects of the compounds of the present disclosure on the expression of target proteins in cells; endogenous in cells; host or cells: LnCap
T2 sequence (P10275 whole entry T878A): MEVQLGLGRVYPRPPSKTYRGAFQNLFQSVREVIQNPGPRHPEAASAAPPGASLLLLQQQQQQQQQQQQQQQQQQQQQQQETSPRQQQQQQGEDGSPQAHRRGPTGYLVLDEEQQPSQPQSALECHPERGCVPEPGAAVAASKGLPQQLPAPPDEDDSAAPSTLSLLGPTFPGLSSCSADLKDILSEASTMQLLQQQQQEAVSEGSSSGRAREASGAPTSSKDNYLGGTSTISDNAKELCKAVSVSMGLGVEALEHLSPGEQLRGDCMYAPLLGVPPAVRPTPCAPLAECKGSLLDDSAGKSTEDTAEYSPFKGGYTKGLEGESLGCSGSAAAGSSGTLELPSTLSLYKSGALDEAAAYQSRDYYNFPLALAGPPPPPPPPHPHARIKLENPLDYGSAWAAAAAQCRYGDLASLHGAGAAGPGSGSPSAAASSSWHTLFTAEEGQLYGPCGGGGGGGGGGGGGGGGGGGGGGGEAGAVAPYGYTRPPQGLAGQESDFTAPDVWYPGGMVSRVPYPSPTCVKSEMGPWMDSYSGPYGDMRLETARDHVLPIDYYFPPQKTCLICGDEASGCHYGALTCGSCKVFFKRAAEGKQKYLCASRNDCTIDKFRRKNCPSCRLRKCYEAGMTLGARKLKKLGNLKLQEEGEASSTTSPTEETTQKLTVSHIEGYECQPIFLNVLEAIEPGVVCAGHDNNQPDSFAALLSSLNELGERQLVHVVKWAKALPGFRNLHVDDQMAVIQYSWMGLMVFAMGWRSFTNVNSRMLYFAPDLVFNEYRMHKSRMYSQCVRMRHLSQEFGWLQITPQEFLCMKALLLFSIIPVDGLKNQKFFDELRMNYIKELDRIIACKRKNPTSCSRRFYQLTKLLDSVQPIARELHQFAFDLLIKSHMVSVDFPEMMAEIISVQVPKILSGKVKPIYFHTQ
T2 sequence (Q96SW2 whole entry): as the sequence (Q96SW2 whole entry) above
T2 sequence (Q16531 whole entry partner): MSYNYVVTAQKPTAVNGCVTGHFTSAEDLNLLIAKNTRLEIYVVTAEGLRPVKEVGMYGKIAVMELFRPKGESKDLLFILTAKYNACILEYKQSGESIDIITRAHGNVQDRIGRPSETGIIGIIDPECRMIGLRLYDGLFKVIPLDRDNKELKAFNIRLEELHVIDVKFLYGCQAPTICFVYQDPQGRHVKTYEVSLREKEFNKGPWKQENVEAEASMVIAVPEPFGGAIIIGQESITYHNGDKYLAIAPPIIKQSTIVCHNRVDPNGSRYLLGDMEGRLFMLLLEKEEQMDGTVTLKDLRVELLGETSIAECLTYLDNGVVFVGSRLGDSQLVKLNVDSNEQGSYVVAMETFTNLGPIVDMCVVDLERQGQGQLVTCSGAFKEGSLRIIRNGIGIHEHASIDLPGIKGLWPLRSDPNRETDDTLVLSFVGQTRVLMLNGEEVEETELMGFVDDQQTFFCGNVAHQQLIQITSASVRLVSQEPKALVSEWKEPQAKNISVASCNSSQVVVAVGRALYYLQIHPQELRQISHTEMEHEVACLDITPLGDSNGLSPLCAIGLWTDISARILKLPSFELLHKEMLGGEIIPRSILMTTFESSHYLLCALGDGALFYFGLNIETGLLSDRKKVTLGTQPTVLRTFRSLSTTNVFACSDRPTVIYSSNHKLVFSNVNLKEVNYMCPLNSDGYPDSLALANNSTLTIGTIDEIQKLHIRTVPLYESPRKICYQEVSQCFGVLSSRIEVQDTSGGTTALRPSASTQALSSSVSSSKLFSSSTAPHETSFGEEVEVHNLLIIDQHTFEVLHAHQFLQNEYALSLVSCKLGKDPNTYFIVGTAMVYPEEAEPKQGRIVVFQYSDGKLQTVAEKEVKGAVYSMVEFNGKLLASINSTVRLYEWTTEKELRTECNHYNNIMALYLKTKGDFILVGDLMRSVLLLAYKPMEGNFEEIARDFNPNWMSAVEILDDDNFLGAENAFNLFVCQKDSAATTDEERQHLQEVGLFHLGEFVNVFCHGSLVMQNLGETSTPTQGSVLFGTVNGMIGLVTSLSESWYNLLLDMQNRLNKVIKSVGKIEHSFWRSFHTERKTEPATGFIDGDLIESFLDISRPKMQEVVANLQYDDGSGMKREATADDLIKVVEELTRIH
Description: Conventional Western blot assay was performed to evaluate the effects of the compounds of the present disclosure on the expression of target proteins in cells.
(1) Cell Seeding and Protein Harvesting: The selected cells were processed according to the cell seeding procedure and protein harvesting procedure in Table III-2. Table III-2 Cell Seeding and Protein Harvesting Procedures
(2) To the collected supernatant, 5X SDS sample loading buffer was added, followed by denaturation at 95°C for 5 minutes. The denatured samples were then separated by SDS-PAGE electrophoresis on a polyacrylamide gel. Proteins were transferred to a nitrocellulose membrane (0.45 µm NC membrane), blocked with blocking buffer at room temperature for 1 hour, and subjected to antibody incubation and development procedures according to the antibody manufacturer's instructions (Cell Signaling Technology).
Half-Maximal Degradation Concentration value (the drug concentration required for degrading proteins by 50%, abbreviated as DC50) reads method: comparing the grayscale values of Western blot bands from drug-treated samples with those from blank DMSO-treated controls, and identifying the drug concentration range at which the grayscale value is half that of the DMSO-treated control bands.
DC50 values can be calculated using ImageJ software to measure grayscale values of Western blot bands from drug-treated samples. […]

DU-145 = experiment: CCK-8 proliferation, DU-145; assay type: cell-based; settings: Homo sapiens, 96 hours, read-out: Inhibitory activity (IC50) on tumor cell proliferation, DU-145
Description: as §2, §3

Row | Structure (SMILES) | IC50 (SW620) | IC50 (MGC-803) | IC50 (CCRF-CEM) | IC50 (Jurkat) | IC50 (CAL-62) | IC50 (Vcap) | IC50 (BXPC-3) | IC50 (THP-1) | IC50 (H520) | inhibition at 0.5 µM ([1]; at 0.5µM, read-out: Inhibition rate (%) at 0.5µM) | inhibition at 2 µM ([1]; at 2 µM, read-out: Inhibition rate (%) at 2 µM) | Degradation of substrate protein AR (substrate protein remaining %) (AR) | IC50 (DU-145)
1 | O=C1CC[C@H](N2Cc3cc(N4CCN(CC5CCN(c6ccc([C@@H]7c8ccc(O)cc8CC[C@@H]7c7ccccc7)cc6)CC5)CC4)ccc3C2=O)C(=O)N1 [ARV-471, reference compound] | 1000 to 5000 nM | > 10000 nM | > 10000 nM | > 10000 nM | > 10000 nM | > 10000 nM | – | – | – | – | – | – | –
2 | Cn1cc(-c2cc(S(C)(=O)=O)ccc2OCc2cccc(NC3CCC(=O)NC3=O)c2)c2cc[nH]c2c1=O (centres unmarked) [GT-04641, 3-((3-((2-(6-methyl-7-oxo-6,7-dihydro-1H-pyrrolo[2,3-c]pyridin-4-yl)-4-(methylsulfonyl)phenoxy)methyl)phenyl)amino)piperidine-2,6-dione] | – | – | – | – | – | – | 500 to 1000 nM | 500 to 1000 nM | 500 to 1000 nM | 20 to 30% | 60 to 80% | A (A is defined as 0% ≤ substrate protein remaining % ≤ 80%) | –
3 | Cc1ccc(-c2c(C)noc2C)cc1N(CC1CCN(Cc2ccc(N3CCC(=O)NC3=O)cn2)CC1)c1ccc(C2(C#N)CC2)cc1 [GT-06411, 1-(4-((5-(3,5-dimethylisoxazol-4-yl)-2-methylphenyl)((1-((5-(2,4-dioxotetrahydropyrimidin-1(2H)-yl)pyridin-2-yl)methyl)piperidin-4-yl)methyl)amino)phenyl)cyclopropane-1-carbonitrile] | – | – | – | – | – | – | – | – | – | – | – | A (A is defined as 0% ≤ substrate protein remaining % ≤ 80%) | 500 to 1000 nM
